Experimental data reported in ChEMBL document CHEMBL6115057, “Discovery and Optimization of a Covalent AKR1C3 Inhibitor” (J Med Chem, 2025).
Numbering of substitutions follows the chain as printed. The source made the active and inactive calls. The rule behind the calls is not given here.

Key:
[1] = biological target: T1, Aldo-keto reductase family 1 member C3 (Homo sapiens) (UniProt P42330); test: Binding affinity to AKR1C3 in human COLO 205 cells assessed as interaction at Y24/Y55 at 100 uM measured after 4 hrs; assay type: cell-based
T1 sequence (whole entry): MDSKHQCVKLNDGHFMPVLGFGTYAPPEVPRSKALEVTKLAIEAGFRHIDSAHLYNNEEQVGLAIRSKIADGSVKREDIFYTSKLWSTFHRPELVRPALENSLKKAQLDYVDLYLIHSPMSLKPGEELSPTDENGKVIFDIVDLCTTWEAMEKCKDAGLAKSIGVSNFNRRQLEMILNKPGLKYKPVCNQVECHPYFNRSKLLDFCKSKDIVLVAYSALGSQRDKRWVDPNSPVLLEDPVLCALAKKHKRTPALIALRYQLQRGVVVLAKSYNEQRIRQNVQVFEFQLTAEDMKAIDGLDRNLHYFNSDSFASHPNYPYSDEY

[2] = biological target: T2, Aldo-keto reductase family 1 member C3 (Homo sapiens, UniProt P42330); test: Inhibition of AKR1C3 in human COLO 205 cells by Cell based AKR activity assay
T2 sequence (P42330 whole entry): T1 sequence (whole entry)

HEK293T = test: Inhibition of RJG-2121 probe labelling of AKR1C4 (unknown origin) expressed in human HEK293T cells in presence of CuAAC measured after 5 to 120 mins by Gel-Based (competitive ABPP) Chemical Proteomics Assay; assay type: cell-based; conditions: time 5-120 min
[3] = biological target: T1, Aldo-keto reductase family 1 member C3 (Homo sapiens); test: Inhibition of RJG-2121 probe labelling of AKR1C3 (unknown origin) expressed in human HEK293T cells in presence of CuAAC measured after 5 to 120 mins by Gel-Based (competitive ABPP) Chemical Proteomics Assay; assay type: cell-based; conditions: time 5-120 min
[4] = biological target: T3, Aldo-keto reductase family 1 member C1 (Homo sapiens) (UniProt Q04828); test: Inhibition of RJG-2121 probe labelling of AKR1C1 (unknown origin) expressed in human HEK293T cells in presence of CuAAC measured after 5 to 120 mins by Gel-Based (competitive ABPP) Chemical Proteomics Assay; assay type: cell-based; conditions: time 5-120 min
T3 sequence (whole entry): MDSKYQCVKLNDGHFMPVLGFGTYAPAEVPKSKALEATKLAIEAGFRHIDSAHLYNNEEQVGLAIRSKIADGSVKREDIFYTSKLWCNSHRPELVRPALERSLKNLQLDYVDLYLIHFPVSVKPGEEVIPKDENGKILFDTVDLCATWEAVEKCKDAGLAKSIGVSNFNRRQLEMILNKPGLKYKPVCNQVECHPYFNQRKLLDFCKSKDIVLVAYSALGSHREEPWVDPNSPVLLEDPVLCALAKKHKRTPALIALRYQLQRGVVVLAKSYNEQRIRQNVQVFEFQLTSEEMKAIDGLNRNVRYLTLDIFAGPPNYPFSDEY

[5] = biological target: T4, Aldo-keto reductase family 1 member C2 (Homo sapiens) (UniProt P52895); test: Inhibition of RJG-2121 probe labelling of AKR1C2 (unknown origin) expressed in human HEK293T cells in presence of CuAAC measured after 5 to 120 mins by Gel-Based (competitive ABPP) Chemical Proteomics Assay; assay type: cell-based; conditions: time 5-120 min
T4 sequence (whole entry): T3 sequence (whole entry) with T38V, R47H, L54V, C87S, V151M, R170H, Q172L

[6] = biological target: T1, Aldo-keto reductase family 1 member C3 (Homo sapiens); test: Inhibition of RJG-2121 probe labelling of AKR1C3 in human COLO 205 cells in presence of CuAAC Gel-Based (competitive ABPP) Chemical Proteomics Assay; assay type: cell-based
[7] = biological target: T4, Aldo-keto reductase family 1 member C2 (Homo sapiens); test: Binding affinity to AKR1C2 in human COLO 205 cells assessed as interaction at Y55 at 100 uM measured after 4 hrs; assay type: cell-based
[8] = biological target: T3, Aldo-keto reductase family 1 member C1 (Homo sapiens); test: Binding affinity to AKR1C1 in human COLO 205 cells assessed as interaction at Y55 at 100 uM measured after 4 hrs; assay type: cell-based
[9] = biological target: Aldo-keto reductase family 1 member B10 (Homo sapiens) (UniProt O60218); test: Binding affinity to AKR1B10 in human live COLO 205 cells assessed as interaction at Y49 by measuring competition ratio at 10 uM measured after 2 hrs relative to control; assay type: cell-based
[10] = biological target: T3, Aldo-keto reductase family 1 member C1 (Homo sapiens); test: Binding affinity to AKR1C1 in human live COLO 205 cells assessed as interaction at Y24/T126 by measuring competition ratio at 10 uM measured after 2 hrs relative to control; assay type: cell-based
[11] = biological target: T1, Aldo-keto reductase family 1 member C3 (Homo sapiens); test: Binding affinity to AKR1C3 in human live COLO 205 cells assessed as interaction at Y272 by measuring competition ratio at 10 uM measured after 2 hrs relative to control; assay type: cell-based
[12] = biological target: T1, Aldo-keto reductase family 1 member C3 (Homo sapiens); test: Inhibition of TMT-SuTex labelling of AKR1C3 in human live COLO 205 cells assessed as competition ratio at 10 uM measured after 2 hrs relative to control; assay type: cell-based
Homo sapiens [13] = organism: Homo sapiens; test: Selectivity ratio, ratio of IC50 for AKR1C1 (unknown origin) to AKR1C3 (unknown origin)
Homo sapiens [14] = organism: Homo sapiens; test: Selectivity ratio, ratio of IC50 for AKR1C2 (unknown origin) to AKR1C3 (unknown origin)
[15] = biological target: T5, Aldo-keto reductase family 1 member C2 (Homo sapiens, UniProt P52895); test: Inhibition of AKR1C2 (unknown origin) in human HEK293T cells assessed as turnover of coumberone to coumberol by live cell coumberone reduction assay; assay type: cell-based
T5 sequence (P52895 whole entry): T3 sequence (whole entry) with T38V, R47H, L54V, C87S, V151M, R170H, Q172L

[16] = biological target: T6, Aldo-keto reductase family 1 member C4 (Homo sapiens, UniProt P17516); test: Inhibition of AKR1C4 (unknown origin) in human HEK293T cells assessed as turnover of coumberone to coumberol by live cell coumberone reduction assay; assay type: cell-based
T6 sequence (P17516 whole entry): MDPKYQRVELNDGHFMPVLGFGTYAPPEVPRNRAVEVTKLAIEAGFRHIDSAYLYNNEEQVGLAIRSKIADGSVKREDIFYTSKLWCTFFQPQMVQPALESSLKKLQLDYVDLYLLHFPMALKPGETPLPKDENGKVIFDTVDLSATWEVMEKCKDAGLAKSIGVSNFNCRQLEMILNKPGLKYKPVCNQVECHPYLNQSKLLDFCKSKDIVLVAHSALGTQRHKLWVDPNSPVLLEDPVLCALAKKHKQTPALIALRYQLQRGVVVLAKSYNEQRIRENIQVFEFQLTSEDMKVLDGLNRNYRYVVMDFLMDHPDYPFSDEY

[17] = biological target: T3, Aldo-keto reductase family 1 member C1 (Homo sapiens); test: Inhibition of RJG-2121 probe labelling of AKR1C1 (unknown origin) expressed in human HEK293T cells in presence of CuAAC measured by Gel-Based (competitive ABPP) Chemical Proteomics Assay; assay type: cell-based; conditions: time 5-120 min
[18] = biological target: T7, Aldo-keto reductase family 1 member C1 (Homo sapiens, UniProt Q04828); test: Inhibition of AKR1C1 (unknown origin) in human HEK293T cells assessed as turnover of coumberone to coumberol by live cell coumberone reduction assay; assay type: cell-based
T7 sequence (Q04828 whole entry): T3 sequence (whole entry)

Homo sapiens [19] = organism: Homo sapiens; test: Selectivity ratio, ratio of IC50 for AKR1C4 (unknown origin) to AKR1C3 (unknown origin)
[20] = biological target: T1, Aldo-keto reductase family 1 member C3 (Homo sapiens); test: Binding affinity to AKR1C3 in human live COLO 205 cells assessed as interaction at Y24 at 10 uM measured after 2 hrs; assay type: cell-based
[21] = biological target: T1, Aldo-keto reductase family 1 member C3 (Homo sapiens); test: Inhibition of TMT-SuTex labelling of AKR1C3 in human live COLO 205 cells assessed as blockade of probe labelling at 10 uM measured after 2 hrs relative to control; assay type: cell-based

Chain of Aldo-keto reductase family 1 member B10 (Homo sapiens) (O60218 whole entry, looked up): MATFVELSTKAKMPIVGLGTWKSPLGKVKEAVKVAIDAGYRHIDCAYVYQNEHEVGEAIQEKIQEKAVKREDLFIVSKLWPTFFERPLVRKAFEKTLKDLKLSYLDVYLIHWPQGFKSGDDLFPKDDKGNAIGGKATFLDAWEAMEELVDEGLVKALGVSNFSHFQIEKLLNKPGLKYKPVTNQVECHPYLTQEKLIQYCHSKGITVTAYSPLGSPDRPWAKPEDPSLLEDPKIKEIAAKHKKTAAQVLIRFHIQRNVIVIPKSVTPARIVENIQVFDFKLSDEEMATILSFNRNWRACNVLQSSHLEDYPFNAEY

| IC50 [2] [nM] | Structure (SMILES) | other results |
| --- | --- | --- |
| – | C#CCNC(=O)c1cccc(S(=O)(=O)n2cncn2)c1 | Activity [1]: Active |
| 510 | COc1ccccc1N1CCN(C(=O)c2ccc(S(=O)(=O)n3cnc(-c4ccc(F)cc4)n3)cc2)CC1 | – |
| > 10000 | O=C(Nc1ccc(-c2ccccn2)cc1)c1ccc(S(=O)(=O)n2cncn2)cc1 | – |
| > 10000 | NS(=O)(=O)c1ccc(-n2nc(CCCNC(=O)Nc3ccc(C(F)(F)F)cc3)cc2-c2ccccc2)cc1 | – |
| 330 | O=C(c1ccc(S(=O)(=O)n2cncn2)cc1)N1CCN(c2ccc(I)cc2)CC1 | – |
| 930 | COc1ccccc1N1CCN(C(=O)c2ccc(S(=O)(=O)n3cnc(-c4ccc(C(F)(F)F)cc4)n3)cc2)CC1 | – |
| 980 | COc1ccccc1N1CCN(C(=O)c2ccc(S(=O)(=O)n3cnc(-c4ccc(Br)cc4)n3)cc2)CC1 | – |
| – | C#CCNC(=O)c1ccc(S(=O)(=O)n2cnc(C3CCCCC3)n2)cc1 | Activity [1]: Active |
| > 10000 | COc1ccccc1N1CCN(C(=O)c2cccc(S(=O)(=O)n3cncn3)c2)CC1 | inhibition (HEK293T): inactive; inhibition [3]: inactive; inhibition [4]: inactive; inhibition [5]: inactive; Activity [6]: inactive |
| – | C#CCN(C)C(=O)c1cccc(S(=O)(=O)n2cnc(C3CC3)n2)c1 | Activity [7]: Active; Activity [8]: Active |
| 500 | COc1ccc(-c2ncn(S(=O)(=O)c3ccc(C(=O)N4CCN(c5ccccc5OC)CC4)cc3)n2)cc1 | – |
| – | C#CCN(C)C(=O)c1ccc(S(=O)(=O)n2cnc(C3CC3)n2)cc1 | Activity [1]: Active |
| > 10000 | O=C(Nc1ccc(-c2ccccc2OC(F)(F)F)cc1)c1ccc(S(=O)(=O)n2cncn2)cc1 | – |
| – | C#CCNC(=O)c1ccc(S(=O)(=O)n2cnc(C3CC3)n2)cc1 | Activity [1]: Active |
| 8700 | COc1ccccc1-c1ccc(NC(=O)c2ccc(S(=O)(=O)n3cncn3)cc2)cc1 | – |
| 950 | COc1ccc(N2CCN(C(=O)c3ccc(S(=O)(=O)n4cncn4)cc3)CC2)cc1 | – |
| 4700 | COc1ccccc1N1CCN(C(=O)c2ccc(S(=O)(=O)n3cnc(-c4ccccc4F)n3)cc2)CC1 | – |
| 87 | COc1ccccc1N1CCN(C(=O)c2ccc(S(=O)(=O)n3cnc(C4CC4)n3)cc2)CC1 | – |

| IC50 [2] [nM] | Structure (SMILES) | other results |
| --- | --- | --- |
| 9200 | COc1ccccc1N1CCN(C(=O)c2cccc(S(=O)(=O)n3cnc(C4CC4)n3)c2)CC1 | – |
| 4200 | COc1ccccc1N1CCN(C(=O)c2ccc(S(=O)(=O)n3cnc(-c4ccncc4)n3)cc2)CC1 | – |
| 540 | COc1cccc(N2CCN(C(=O)c3ccc(S(=O)(=O)n4cncn4)cc3)CC2)c1 | – |
| > 10000 | COc1ccccc1N1CCN(C(=O)c2ccc(S(=O)(=O)n3cnc(-c4ccc(-c5ccccc5)cc4)n3)cc2)CC1 | – |
| 1100 | COc1ccccc1N1CCN(C(=O)c2ccc(S(=O)(=O)n3cnc(-c4ccc(OC(F)(F)F)cc4)n3)cc2)CC1 | – |
| 27 | COc1ccccc1N1CCN(C(=O)c2ccc(S(=O)(=O)n3cnc(C4CCCCC4)n3)cc2)CC1 | Ratio [9]: 1; Ratio [10]: 1; Ratio [11]: 1; Ratio [12]: 0.25; Ratio IC50 (Homo sapiens [13]): 2380; Ratio IC50 (Homo sapiens [14]): 1770; IC50 [15]: 23 µM; IC50 [16]: 6 µM; inhibition [17]: Time-dependent-effect; IC50 [18]: 31 µM; Ratio IC50 (Homo sapiens [19]): 461; Activity [20]: Active; inhibition [21]: > 75%; inhibition [6]: Dose-dependent-effect |
| 2600 | O=C(c1ccc(S(=O)(=O)n2cncn2)cc1)N1CCN(c2ccccn2)CC1 | – |
| 2700 | COc1ccccc1N1CCN(C(=O)c2ccc(S(=O)(=O)n3cnc(-c4ccccc4)n3)cc2)CC1 | – |
| 7100 | COc1ccccc1N1CCN(C(=O)c2ccc(S(=O)(=O)n3cnc(-c4cccnc4)n3)cc2)CC1 | – |
| 5000 | COc1ccccc1N1CCN(C(=O)c2ccc(S(=O)(=O)n3cnc(-c4ccco4)n3)cc2)CC1 | – |
| – | C#CCN(C)C(=O)c1ccc(S(=O)(=O)n2cncn2)cc1 | Activity [7]: Active; Activity [8]: Active |
| > 10000 | COc1ccccc1N1CCN(C(=O)c2cccc(S(=O)(=O)n3cnc(C4CCCCC4)n3)c2)CC1 | – |
| 4700 | COc1ccccc1NC1CCN(C(=O)c2ccc(S(=O)(=O)n3cncn3)cc2)CC1 | – |
| 620 | COc1ccccc1N1CCN(C(=O)c2ccc(S(=O)(=O)n3cnc(-c4cccc(F)c4)n3)cc2)CC1 | – |
| 62 | COc1ccccc1N1CCN(C(=O)c2ccc(S(=O)(=O)n3cnc(C4CCC4)n3)cc2)CC1 | – |
| > 10000 | COc1ccccc1N1CCN(C(=O)c2cccc(S(=O)(=O)n3cnc(-c4cccnc4)n3)c2)CC1 | – |
| 2400 | COc1ccccc1N1CCN(C(=O)c2ccc(S(=O)(=O)n3cncn3)cc2)CC1 | – |
| 41 | COc1ccccc1N1CCN(C(=O)c2ccc(S(=O)(=O)n3cnc(C4CCCC4)n3)cc2)CC1 | – |
